The target in data set [1] is T1, ATP-dependent translocase ABCB1 (Homo sapiens, UniProt P08183). In words: TP_TRANSPORTER: inhibition of ATPase activity (Verapamil) in membranes from CEM/VLB100 cells. The format is functional, cell membranes, Membrane.
Data set [2] addresses T1, ATP-dependent translocase ABCB1. Description: TP_TRANSPORTER: ATP hydrolysis in membranes from CEM/VLB100 cells. The format is functional, cell membranes, Membrane.

Among the data in ChEMBL document CHEMBL2073918, “Effect of modulators on the ATPase activity and vanadate nucleotide trapping of human P-glycoprotein” (Biochem Pharmacol, 1998) are Ki and Activity values, retold here.

Each structure is given as a SMILES string.

T1 sequence (P08183 whole entry): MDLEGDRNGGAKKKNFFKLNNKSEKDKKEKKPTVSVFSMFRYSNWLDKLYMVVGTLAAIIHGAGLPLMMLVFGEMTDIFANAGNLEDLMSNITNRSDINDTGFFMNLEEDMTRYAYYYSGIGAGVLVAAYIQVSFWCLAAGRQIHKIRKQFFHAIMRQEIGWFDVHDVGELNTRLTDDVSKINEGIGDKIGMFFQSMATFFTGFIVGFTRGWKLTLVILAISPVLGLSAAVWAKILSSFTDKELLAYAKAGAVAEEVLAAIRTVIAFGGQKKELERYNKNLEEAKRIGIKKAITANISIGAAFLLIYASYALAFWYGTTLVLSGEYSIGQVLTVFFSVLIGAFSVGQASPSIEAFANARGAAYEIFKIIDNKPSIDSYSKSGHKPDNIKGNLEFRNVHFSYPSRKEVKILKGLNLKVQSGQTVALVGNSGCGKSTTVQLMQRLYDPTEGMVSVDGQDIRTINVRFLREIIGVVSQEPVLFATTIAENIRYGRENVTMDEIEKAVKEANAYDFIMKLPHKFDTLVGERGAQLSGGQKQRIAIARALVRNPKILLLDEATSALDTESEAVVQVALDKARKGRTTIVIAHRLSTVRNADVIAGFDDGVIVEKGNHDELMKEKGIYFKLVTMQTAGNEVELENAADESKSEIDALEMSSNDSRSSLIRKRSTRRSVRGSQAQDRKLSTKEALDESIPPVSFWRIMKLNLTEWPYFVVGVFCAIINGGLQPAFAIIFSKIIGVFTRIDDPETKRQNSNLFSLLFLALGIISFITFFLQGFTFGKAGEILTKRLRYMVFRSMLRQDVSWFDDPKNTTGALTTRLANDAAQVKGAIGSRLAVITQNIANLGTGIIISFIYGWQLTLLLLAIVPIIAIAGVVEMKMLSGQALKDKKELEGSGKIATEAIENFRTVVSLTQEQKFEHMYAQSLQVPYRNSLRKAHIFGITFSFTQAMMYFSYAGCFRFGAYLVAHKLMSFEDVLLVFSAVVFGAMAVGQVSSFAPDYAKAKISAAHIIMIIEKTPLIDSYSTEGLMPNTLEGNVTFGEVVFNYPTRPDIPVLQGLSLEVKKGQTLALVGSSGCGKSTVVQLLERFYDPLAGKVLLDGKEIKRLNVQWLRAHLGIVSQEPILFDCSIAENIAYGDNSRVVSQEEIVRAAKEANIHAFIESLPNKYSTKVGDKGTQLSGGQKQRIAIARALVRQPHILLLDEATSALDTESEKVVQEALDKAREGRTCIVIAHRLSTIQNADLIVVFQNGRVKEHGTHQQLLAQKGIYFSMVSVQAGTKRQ

Turning to `COC(=O)[C@@H]1C2CC3c4[nH]c5ccccc5c4CCN3CC2CC[C@@H]1OC(=O)c1cc(OC)c(OC)c(OC)c1` (some centres not stated) [TRIMETHOXYBENZOYLYOHIMBINE], in data set [1], the Ki (usually a measure of affinity in units of concentration, obtained from inhibition or displacement) came out at 2.1 µM.
For the compound `CCC12C=CCN3CC[C@@]4(c5ccc(OC)cc5N(C)[C@H]4[C@@](O)(C(=O)OC)[C@@H]1OC(C)=O)[C@@H]32` (some centres not stated) [VINDOLINE], in data set [2], the Activity entry was “is not a substrate [-]”.
